Assay [1] has as its system human telomeric G4 DNA, dAGGG(TTAGGG)3 (DNA, G4) AGGGTTAGGGTTAGGGTTAGGG
Put plainly: time-resolved fluorescence (TCSPC). To be noted: 100 mM Na+; 10 mM Tris, pH 7.3, 25 °C; 5.5 μM peptide; 0 to 10.5 μM G4.

Assay [2] shares this test system. Put plainly: intrinsic fluorescence titration. As to conditions: 15 μM peptide; 0 to 18.16 μM G4; room temperature.
The test system is the same in assay [3]. Put plainly: CD titration. To be noted: Na+; aqueous buffer.
Assay [4] shares this test system. In words: thiazole orange displacement (fluorescence). As to conditions: 298 K; thiazole orange displaced; 0.25 μM G4, 0.50 μM TO.
Assay [5] shares this test system. Put plainly: ITC. To be noted: Na+ 100 mM; 298.15 K; 64 μM DNA in cell, 700 μM peptide in syringe.
The subject of assay [6] is ds26 (DNA, duplex) CAATCGGATCGAATTCGATCCGATTG
Put plainly: ITC. To be noted: Na+ 100 mM.

Assay [7] concerns human telomeric G4 DNA, dAGGG(TTAGGG)3 (DNA, G4) AGGGTTAGGGTTAGGGTTAGGG
In words: EMSA. As to conditions: 30 μM G4; room temperature; 15-120 μM peptide. On the technique in general: In EMSA bound probe runs differently from free probe, usually more slowly.

Drawing on article PMC9122626 (2020), this text covers binding, IC50 and Ka for one molecule.

As for `N[C@@H](Cc1ccc(O)cc1)C(=O)N[C@@H](CCC(=O)N[C@@H](CCC(=O)O)C(=O)O)C(=O)N[C@@H](CCC(=O)O)C(=O)O` (racemic), the binding result in assay [1], in assay [2], in assay [3] and in assay [7] was “yes” throughout. For the same molecule, the IC50 in assay [4] was ~ 8.4 μM. Further, the Ka is 1.1e+06 M⁻¹ in assay [5] and 9600 M⁻¹ in assay [6].
